This is an account of results in US20250296971A1, “GASTRIC INHIBITORY PEPTIDE RECEPTOR LIGANDS” (priority 2021, published 2025).

The assay has as its target T1, GIPR (CHO-K1-hGIPR cells) (Homo sapiens, UniProt P48546).
T1 construct: host or cells: CHO-K1
T1 sequence (P48546 22-466): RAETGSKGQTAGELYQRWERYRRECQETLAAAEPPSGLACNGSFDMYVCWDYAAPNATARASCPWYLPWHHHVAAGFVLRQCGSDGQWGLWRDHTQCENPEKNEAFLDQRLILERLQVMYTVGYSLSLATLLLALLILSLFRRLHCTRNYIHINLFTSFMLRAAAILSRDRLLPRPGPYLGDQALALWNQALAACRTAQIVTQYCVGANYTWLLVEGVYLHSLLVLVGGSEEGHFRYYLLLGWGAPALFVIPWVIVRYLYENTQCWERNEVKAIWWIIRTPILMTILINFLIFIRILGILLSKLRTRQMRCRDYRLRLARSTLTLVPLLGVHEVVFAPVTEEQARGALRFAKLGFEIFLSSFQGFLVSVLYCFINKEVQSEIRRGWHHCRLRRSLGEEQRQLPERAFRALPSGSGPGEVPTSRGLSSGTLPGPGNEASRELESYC
As to the kind of experiment: FACS binding assay. The conditions noted are these: competition with 20 nM GIP-057, 4° C. for 1 hour, read-out: pIC50 Category (converted). In outline: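 Read-out: flow cytometric median fluorescence intensity, APC/Cy5 channel, plotted vs peptide conc.; 4PL fit → EC50/pEC50 or IC50/pIC50. Cells: CHO-K1-hGIPR, Accutase-detached, 500.000/mL in PBS + 1% FCS. Detection: APC-streptavidin 1 μg/mL, 30 min, on ice.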
(Flow cytometry measures light scatter and fluorescence of single cells or particles in a stream.)

*1 amine or outer side, *2 acyl side, *3 side chain or, on linkers, in order; H or OH if unused. Where a SMILES comes first, the peptide text is derived from it. Bridges are numbered along the chain shown (N, C = ends). [ ]: non-standard residue; d: D form. The star is where a group is joined. ξ: configuration not given here. X5 = NC(=O)[C@H](CCCCNC(=O)CN1CCN(CC(=O)O)CCN(CC(=O)O)CCN(CC(=O)O)CC1)NC(=O)CCC(=O)NCCCOCCOCCOCCCN*; X3 = O=C(O)CN1CCN(CC(=O)O)CCN(CC(=O)NCCCOCCOCCOCCCN*)CCN(CC(=O)O)CC1; Propanoyl(3-(1-naphthyl)) = O=C(CCc1cccc2ccccc12)*; Trp(5-Cl) = N[C@@H](Cc1c[nH]c2ccc(Cl)cc12)C(=O)O; Trp(5-OH) = N[C@@H](Cc1c[nH]c2ccc(O)cc12)C(=O)O; Trp(7-aza) = N[C@@H](Cc1c[nH]c2ncccc12)C(=O)O; 1Nal = N[C@@H](Cc1cccc2ccccc12)C(=O)O; mXylylene = c1cc(C[*:1])cc(C[*:2])c1; X7 = c1cc(CSCCN[*:2])cc(C[*:1])c1; Suc = O=C(CCC(=O)[*:2])[*:1]; Aib = CC(C)(N)C(=O)O; ξP = O=C(O)C1CCCN1 Bounds are passed on as bounds.

For `CC[C@H](C)[C@@H]1NC(=O)[C@H](CC(C)C)NC(=O)C(C)(C)NC(=O)[C@@H](NC(=O)[C@H](CC(C)C)NC(=O)[C@H](CCC(=O)O)NC(=O)[C@@H]2CCCN2C(=O)[C@H](Cc2cccc3ccccc23)NC(C)=O)CSCc2cccc(c2)CSC[C@@H](C(=O)NCCCOCCOCCOCCCNC(=O)CCC(=O)N[C@@H](CCCCNC(=O)CN2CCN(CC(=O)O)CCN(CC(=O)O)CCN(CC(=O)O)CC2)C(N)=O)NC1=O` [GIP-298, Ac-1Ni-Pro-Glu-Leu-[Cys(3MeBn)-Aib-Leu-Ile-Cys]-Ttds-Lys(DOTA)-NH2] (Ac-[1Nal]PELC[Aib]LIC-X5; linker 5-9 via mXylylene), the IC50 is greater than 1 µM.
Then `CC[C@H](C)[C@@H]1NC(=O)[C@H](CC(C)C)NC(=O)C(C)(C)NC(=O)[C@@H](NC(=O)[C@H](CC(C)C)NC(=O)[C@H](CCC(=O)O)NC(=O)[C@@H]2CCCN2C(=O)CCc2cccc3ccccc23)CSCc2cccc(c2)CSC[C@@H](C(=O)NCCCOCCOCCOCCCNC(=O)CCC(=O)N[C@@H](CCCCNC(=O)CN2CCN(CC(=O)O)CCN(CC(=O)O)CCN(CC(=O)O)CC2)C(N)=O)NC1=O` [GIP-299, Nph1p-Pro-Glu-Leu-[Cys(3MeBn)-Aib-Leu-Ile-Cys]-Ttds-Lys(DOTA)-NH2] ({Propanoyl(3-(1-naphthyl))}-PELC[Aib]LIC-X5; linker 4-8 via mXylylene), with greater than 1 µM.
Consider `CC(=O)N[C@@H](CC(=O)O)C(=O)N[C@@H](Cc1c[nH]c2ccccc12)C(=O)N[C@@H](Cc1cccc2ccccc12)C(=O)N1CCC[C@H]1C(=O)N[C@@H](CCC(=O)O)C(=O)N[C@H](CC(C)C)C(=O)N[C@H]1CSCc2cccc(c2)CSC[C@@H](C(=O)NCCCOCCOCCOCCCNC(=O)CCC(=O)N[C@@H](CCCCNC(=O)CN2CCN(CC(=O)O)CCN(CC(=O)O)CCN(CC(=O)O)CC2)C(N)=O)NC(=O)[C@@H](C(C)C)NC(=O)[C@H](CC(C)C)NC(=O)[C@H](C)NC1=O` [GIP-300, Ac-Asp-Trp-1Ni-Pro-Glu-leu-[Cys(3MeBn)-Ala-Leu-val-Cys]-Ttds-Lys(DOTA)-NH2] (Ac-DW[1Nal]PE[dL]CAL[dV]C-X5; linker 7-11 via mXylylene), for which the IC50 is greater than 1 µM.
For `CC[C@H](C)[C@@H]1NC(=O)[C@H](CC(C)C)NC(=O)C(C)(C)NC(=O)[C@@H](NC(=O)[C@H](CC(C)C)NC(=O)[C@H](CCC(=O)O)NC(=O)[C@@H]2CCCN2C(=O)[C@H](Cc2cccc3ccccc23)NC(=O)[C@H](Cc2c[nH]c3ccccc23)NC(C)=O)CSCc2cccc(c2)CSC[C@@H](C(=O)NCCCOCCOCCOCCCNC(=O)CCC(=O)N[C@@H](CCCCNC(=O)CN2CCN(CC(=O)O)CCN(CC(=O)O)CCN(CC(=O)O)CC2)C(N)=O)NC1=O` [GIP-301, Ac-Trp-1Ni-Pro-Glu-Leu-[Cys(3MeBn)-Aib-Leu-Ile-Cys]-Ttds-Lys(DOTA)-NH2] (Ac-W[1Nal]PELC[Aib]LIC-X5; linker 6-10 via mXylylene), the IC50 is greater than 1 µM.
Then `CC[C@H](C)[C@@H]1NC(=O)[C@H](CC(C)C)NC(=O)C(C)(C)NC(=O)[C@@H](NC(=O)[C@@H](CC(C)C)NC(=O)[C@H](CCC(=O)O)NC(=O)[C@@H]2CCCN2C(=O)[C@H](Cc2c[nH]c3ccc(O)cc23)NC(=O)[C@H](Cc2c[nH]c3ccccc23)NC(=O)[C@H](CC(=O)O)NC(C)=O)CSCc2cccc(c2)CSC[C@@H](C(=O)NCCCOCCOCCOCCCNC(=O)CCC(=O)N[C@@H](CCCCNC(=O)CN2CCN(CC(=O)O)CCN(CC(=O)O)CCN(CC(=O)O)CC2)C(N)=O)NC1=O` [GIP-302, Ac-Asp-Trp-Hyw-Pro-Glu-leu-[Cys(3MeBn)-Aib-Leu-Ile-Cys]-Ttds-Lys(DOTA)-NH2] (Ac-DW[Trp(5-OH)]PE[dL]C[Aib]LIC-X5; linker 7-11 via mXylylene), with greater than 1 µM.
As for `CC[C@H](C)[C@@H]1NC(=O)[C@H](CC(C)C)NC(=O)C(C)(C)NC(=O)[C@@H](NC(=O)[C@@H](CC(C)C)NC(=O)[C@H](CCC(=O)O)NC(=O)[C@@H]2CCCN2C(=O)[C@H](Cc2cccc3ccccc23)NC(=O)[C@H](Cc2c[nH]c3ncccc23)NC(=O)[C@H](CC(=O)O)NC(C)=O)CSCc2cccc(c2)CSC[C@@H](C(=O)NCCCOCCOCCOCCCNC(=O)CCC(=O)N[C@@H](CCCCNC(=O)CN2CCN(CC(=O)O)CCN(CC(=O)O)CCN(CC(=O)O)CC2)C(N)=O)NC1=O` [GIP-303, Ac-Asp-7Nw-1Ni-Pro-Glu-leu-[Cys(3MeBn)-Aib-Leu-Ile-Cys]-Ttds-Lys(DOTA)-NH2] (Ac-D[Trp(7-aza)][1Nal]PE[dL]C[Aib]LIC-X5; linker 7-11 via mXylylene), the IC50 is greater than 1 µM.
Then `CC[C@H](C)[C@@H]1NC(=O)[C@H](CC(C)C)NC(=O)[C@@H](NC(=O)[C@H](CCC(=O)O)NC(=O)[C@@H](CC(C)C)NC(=O)[C@H](Cc2c[nH]c3ccc(Cl)cc23)NC(=O)[C@@H]2CCCN2C(=O)[C@H](CC(=O)O)NC(=O)[C@H](Cc2c[nH]c3ccccc23)NC(=O)CCC(=O)NCCCOCCOCCOCCCNC(=O)CN2CCN(CC(=O)O)CCN(CC(=O)O)CCN(CC(=O)O)CC2)CSCc2cccc(c2)CSCCNC(=O)C(C)(C)NC1=O` [GIP-304, DOTA-Ttds-Trp-Asp-Pro-5Clw-leu-Glu-[Cys(3MeBn)-Leu-Ile-Aib-AET]] ({X3-Suc}-WDP[Trp(5-Cl)][dL]ECLI[Aib]; linker 7-C via X7), with greater than 1 µM; and `CC[C@H](C)[C@@H]1NC(=O)C(C)(C)NC(=O)[C@H](CCC(=O)O)NC(=O)[C@@H](NC(=O)[C@H](CC(C)C)NC(=O)[C@H](Cc2c[nH]c3ccccc23)NC(=O)[C@H](Cc2c[nH]c3ccc(Cl)cc23)NC(=O)[C@@H]2CCCN2C(=O)[C@H](CC(=O)O)NC(=O)[C@@H](CC(C)C)NC(=O)CCC(=O)NCCCOCCOCCOCCCNC(=O)CN2CCN(CC(=O)O)CCN(CC(=O)O)CCN(CC(=O)O)CC2)CSCc2cccc(c2)CSCCNC1=O` [GIP-305, DOTA-Ttds-leu-Asp-Pro-5Clw-Trp-Leu-[Cys(3MeBn)-Glu-Aib-Ile-AET]] ({X3-Suc}-[dL]DP[Trp(5-Cl)]WLCE[Aib]I; linker 7-C via X7), with greater than 1 µM; and `CC[C@H](C)[C@@H]1NC(=O)[C@@H](NC(=O)[C@H](Cc2c[nH]c3ccccc23)NC(=O)[C@H](CC(=O)O)NC(=O)[C@@H](CC(C)C)NC(=O)[C@H](CCC(=O)O)NC(=O)C2CCCN2C(=O)[C@H](Cc2c[nH]c3ccc(Cl)cc23)NC(=O)CCC(=O)NCCCOCCOCCOCCCNC(=O)CN2CCN(CC(=O)O)CCN(CC(=O)O)CCN(CC(=O)O)CC2)CSCc2cccc(c2)CSCCNC(=O)C(C)(C)NC(=O)[C@H](CC(C)C)NC1=O` (stereo partly drawn) [GIP-306, DOTA-Ttds-5Clw-Pro-Glu-leu-Asp-Trp-[Cys(3MeBn)-Ile-Leu-Aib-AET]] ({X3-Suc}-[Trp(5-Cl)][ξP]E[dL]DWCIL[Aib]; linker 7-C via X7), with greater than 1 µM.
To `CC[C@H](C)[C@@H]1NC(=O)[C@H](CC(C)C)NC(=O)[C@H](C)NC(=O)[C@@H](NC(=O)[C@H](CC(C)C)NC(=O)[C@H](CCC(=O)O)NC(=O)[C@@H]2CCCN2C(=O)[C@H](Cc2c[nH]c3ccccc23)NC(=O)[C@H](Cc2c[nH]c3ccccc23)NC(=O)[C@@H](CC(=O)O)NC(=O)[C@H](Cc2ccc(O)cc2)NC(=O)[C@@H](N)CCSC)CSCc2cccc(c2)CSC[C@@H](C(N)=O)NC1=O` [GIP-307, H-Met-Tyr-asp-Trp-Trp-Pro-Glu-Leu-[Cys(3MeBn)-Ala-Leu-Ile-Cys]-NH2] (H-MY[dD]WWPELCALIC-NH2; linker 9-13 via mXylylene) belongs 0.1 to 0.794 µM; to `CC[C@H](C)[C@@H]1NC(=O)[C@H](CC(C)C)NC(=O)[C@H](C)NC(=O)[C@@H](NC(=O)[C@H](CC(C)C)NC(=O)[C@H](CCC(=O)O)NC(=O)[C@@H]2CCCN2C(=O)[C@H](Cc2c[nH]c3ccccc23)NC(=O)[C@@H](Cc2c[nH]c3ccccc23)NC(=O)[C@H](CC(=O)O)NC(=O)[C@H](Cc2ccc(O)cc2)NC(=O)[C@@H](N)CCSC)CSCc2cccc(c2)CSC[C@@H](C(N)=O)NC1=O` [GIP-308, H-Met-Tyr-Asp-trp-Trp-Pro-Glu-Leu-[Cys(3MeBn)-Ala-Leu-Ile-Cys]-NH2] (H-MYD[dW]WPELCALIC-NH2; linker 9-13 via mXylylene), 0.1 to 0.794 µM; to `CC[C@H](C)[C@@H]1NC(=O)[C@H](CC(C)C)NC(=O)[C@H](C)NC(=O)[C@H](NC(=O)[C@H](CC(C)C)NC(=O)[C@H](CCC(=O)O)NC(=O)[C@@H]2CCCN2C(=O)[C@H](Cc2c[nH]c3ccccc23)NC(=O)[C@H](Cc2c[nH]c3ccccc23)NC(=O)[C@H](CC(=O)O)NC(=O)[C@H](Cc2ccc(O)cc2)NC(=O)[C@@H](N)CCSC)CSCc2cccc(c2)CSC[C@@H](C(N)=O)NC1=O` [GIP-309] (H-MYDWWPEL[dC]ALIC-NH2; linker 9-13 via mXylylene), 0.1 to 0.794 µM.
To `CC[C@H](C)[C@@H]1NC(=O)[C@H](CC(C)C)NC(=O)[C@H](C)NC(=O)[C@@H](NC(=O)[C@H](CC(C)C)NC(=O)[C@H](CCC(=O)O)NC(=O)[C@@H]2CCCN2C(=O)[C@H](Cc2c[nH]c3ccccc23)NC(=O)[C@H](Cc2c[nH]c3ccccc23)NC(=O)[C@H](CC(=O)O)NC(=O)[C@H](Cc2ccc(O)cc2)NC(=O)[C@@H](N)CCSC)CSCc2cccc(c2)CSC[C@H](C(N)=O)NC1=O` [GIP-310] (H-MYDWWPELCALI[dC]-NH2; linker 9-13 via mXylylene) belongs 0.1 to 0.794 µM; to `CC[C@H](C)[C@@H]1NC(=O)[C@H](CC(C)C)NC(=O)[C@H](C)NC(=O)[C@@H](NC(=O)[C@H](CC(C)C)NC(=O)[C@H](CCC(=O)O)NC(=O)[C@H](C)NC(=O)[C@H](Cc2c[nH]c3ccccc23)NC(=O)[C@H](Cc2c[nH]c3ccccc23)NC(=O)[C@H](CC(=O)O)NC(=O)[C@H](Cc2ccc(O)cc2)NC(=O)[C@@H](N)CCSC)CSCc2cccc(c2)CSC[C@@H](C(N)=O)NC1=O` [GIP-311] (H-MYDWWAELCALIC-NH2; linker 9-13 via mXylylene), 0.1 to 0.794 µM.
